Test system: American home dust mites
Test: Efficacy of plant essential oils (actives) against dust mite, residue on glass petri dish
Source text: Efficacy of different plant essential oils (actives) against dust mite
Two different concentrations of each test actives were used
50 dust mites (American home dust mites) were used per replicate. Four replicates were used per test concentration
Chemicals were applied to the surface of 100 mm glass petri dish in acetone. The control plates received same volume of solvent (acetone) only. All plates left at room temperature for air dry. After 1 hr (complete evaporation of acetone) the dust mites were transferred to each plate.
test actives were tested with and without 2 parts of piperonyl butoxide (PBO), known synergist.
Data are the mean of four replicates (200 dust mites per test concentration per chemical)

[1] = 25 ppm, 5 min, W/PBO (2 parts piperonyl butoxide)
[2] = 25 ppm, 15 min, W/PBO (2 parts piperonyl butoxide)
[3] = 25 ppm, 60 min, W/PBO (2 parts piperonyl butoxide)
[4] = 250 ppm, 5 min, W/PBO (2 parts piperonyl butoxide)

| Structure (SMILES) | % Mortality (25 ppm, 5 min, W/O PBO) [%] | % Mortality [1] [%] | % Mortality (25 ppm, 15 min, W/O PBO) [%] | % Mortality [2] [%] | % Mortality (25 ppm, 60 min, W/O PBO) [%] | % Mortality [3] [%] | % Mortality (250 ppm, 5 min, W/O PBO) [%] | % Mortality [4] [%] | % Mortality (250 ppm, 15 min, W/O PBO) [%] | % Mortality (250 ppm, 15 min, W/PBO (2 parts piperonyl butoxide)) [%] | % Mortality (250 ppm, 60 min, W/O PBO) [%] | % Mortality (250 ppm, 60 min, W/PBO (2 parts piperonyl butoxide)) [%] |
| --- | --- | --- | --- | --- | --- | --- | --- | --- | --- | --- | --- | --- |
| CCC(=O)OCCc1ccccc1 [PEP, phenethyl propionate] | 54 | 63 | 60.0 | 69.0 | 62.0 | 78.0 | 80 | 97 | 92 | 99 | 99 | 100 |
| Cc1ccc(C(C)C)c(O)c1 [thymol] | 67 | 80 | 72.2 | 85.0 | 80.0 | 87.5 | 100 | 100 |  |  |  |  |
| OCc1ccccc1 [BA, Benzyl Alcohol] | 53 | 68 | 61.0 | 73.0 | 68.0 | 79.0 | 90 | 100 | 98 |  | 100 |  |

Source: patent US6887899B1, “Method for controlling house dust mites with a composition comprising phenylethyl propionate” (Ecosmart Technologies, Inc., priority 1999, dated 2005)
